Reference: paper PMC9970268 (Cancer Research Communications, 2022)
Where two headings read alike, the source gives them in different places.

Assays:
Rac = conditions: cited from earlier work
GFP-HER2-BM cells [1] = test: Cell viability (MTT) assay; type: cell-based, human
Description: (§1) Using CellTiter 96 Non-Radioactive Cell Proliferation Assay (Promega, Corp.) according to manufactures’ instructions, formazan was used as an indicator of viable cells at an absorbance 570 nm in a Tecan Microplate Reader M100 (Tecan). Data were calculated as fold change from vehicle and transformed to logarithm base 10. 0 concentration was replaced with 1 nmol/L to fit using the 4-parameter logic nonlinear regression model in GraphPad Prism software. (n = 3 biologic replicates: with three technical replicates each).
(§2) All half maximal growth inhibitory concentration (GI50) values were determined by using the 4-parameter logistic curve model in GraphPad Prism 9 software. Statistical analyses were done also using GraphPad Prism 9 software, and differences were considered statistically significant at P ≤ 0.05 using ordinary one-way ANOVA or unpaired Student t test with Dunnet multiple comparison tests.

MDA-MB-468 cells [2] = test: Apoptosis assay (Caspase-Glo3/7); type: cell-based, human; conditions: 500 nmol/L, 48 hours
Description: (§3) Apoptosis was measured using a Caspase-Glo3/7 Luminescence Assay Kit as per manufacturer's instructions (Promega, Corp.), as described previously ([23]). Briefly, Caspase-3/7 Glo reagent was added and incubated at room temperature for 60 minutes and caspase-3/7 activities were determined by detecting luminescence using Tecan Microplate Reader M100 (Tecan). Data were calculated as fold change from vehicle. (n = 3 biologic replicates: with three technical replicates each).

GFP-HER2-BM cells [3] = test: Apoptosis assay (Caspase-Glo3/7); type: cell-based, human; conditions: 500 nmol/L, 48 hours
Description: as §3

MDA-MB-231 cells [4] = test: Cell viability (MTT) assay; type: cell-based, human
Description: as §1, §2

MCF10A cells = test: Cell viability (MTT) assay; type: cell-based, human
Description: as §1, §2

MDA-MB-231 cells [5] = test: Apoptosis assay (Caspase-Glo3/7); type: cell-based, human; conditions: 500 nmol/L, 48 hours
Description: as §3

[6] = target: T1, Rac1(G15A) interaction with Vav2 (Homo sapiens, UniProt P63000, G15A); test: Rac1 (G15A) pulldown assay, Vav2; type: binding; conditions: for potency relative to EHop-016 (parent compound): Vav/Rac inhibitor
T1 construct: purchased Cell Biolabs; host or cells: GEF from MDA-MB-231 lysate
Description: MDA-MB-231 cells were lysed in 1% Triton X-100, 20 mmol/L HEPES, pH 7.4, 150 mmol/L NaCl, 5 mmol/L MgCl2, and protease inhibitors, and processed as described previously ([20]). Equal amounts of protein from cleared lysates were incubated for 1 hour at 4°C with glutathione-agarose beads conjugated to GST-Rac1 and GST-Cdc42(G15A) nucleotide-free mutant (Cell Biolabs) that were preincubated (for 1 hour) with vehicle or Rac/Cdc42 inhibitors, as indicated. The beads were washed, and pulldowns were immunoblotted for Vav2 or Ect2.

Rac1 [7] = target: Rac1 (Homo sapiens, UniProt P63000); test: Rac activation pulldown assay in MDA-MB-231 cells; conditions: MDA-MB-231, read-out: inhibition of Rac1 activity, MDA-MB-231, 250 nmol/L, 24 hours
Rac1B splice variant = Rac1B splice variant (Homo sapiens, UniProt P63000); test: Rac1B activation pulldown assay in MDA-MB-468 cells; conditions: MDA-MB-468, read-out: inhibition of Rac1B activation, MDA-MB-468, 500 nmol/L, 24 hours
A549 lung cancer cells = test: EGF-induced ruffle formation; type: cell-based, human; conditions: 24 hours, then EGF 200 ng/mL
Description: Cells were fixed with 4% formaldehyde and F-actin stained with rhodamine phalloidin. Slides were visualized by fluorescence microscopy and five random fields were scored for the number of ruffles. Ruffle area was measured by thresholding for single intensity using ImageJ/Fiji software, as in ref. [29].

MDA-MB-231 cells [8] = test: Phalloidin staining of F-actin, cell phenotype; type: cell-based, human; conditions: 250 nmol/L, 12 hours
From the text: Cells were fixed, permeabilized, and stained with rhodamine phalloidin to visualize F-actin as described previously ([23]). Fluorescence micrographs were acquired at 40× in a Keyence fluorescence microscope.

[9] = system: MDA-MB-231, GFP-HER2-BM, and MDA-MB-468 cells; test: Apoptosis assay (Caspase-Glo3/7), cell line not specified; type: cell-based, human; conditions: 500 nmol/L, 48 hours
Description: as §3

MCF7 breast cancer cells = test: Cell viability (MTT) assay; type: cell-based, human; conditions: 250 nmol/L, 120 hr
Description: as §1
Supplementary Figure S1. Percentage cell viability of MDA-MB-231, GFP-HER2-BM, […]
nM for 120 hr. The bar graphs are presented as individual fold change data points from vehicle and grouped mean ± SEM. (n = 3; *, P < 0.05; ** P < 0.01).
(1 picture or pasted object on this page, not shown here)

MDA-MB-468 cells [10] = test: Cell viability (MTT) assay; type: cell-based, human; conditions: 500 nmol/L, 72 hours
Description: as §1

HMEC cells = test: Cell viability (MTT) assay; type: cell-based, human; conditions: 120 hours, 0 to 1,000 nmol/L
Description: as §1

MDA-MB-231 cells [11] = test: Wound healing assay; type: cell-based, human; conditions: 250 nmol/L; 12 and 24 hours
Description: MDA-MB-231 cells were plated on 12-well plates at equal cell density until confluent. Then the media was changed to 1% FBS, and a single scratch was made in the center of the monolayer culture with a pipet tip. Compounds were added immediately at 250 or 500 nmol/L and images were digitally acquired from a Keyence microscope (10×) at 0, 12, and 24 hours. The scratch area was quantified in ImageJ using the Macro Wound Healing Tool (http://dev.mri.cnrs.fr/projects/imagej-macros/wiki/Wound_Healing_Tool; n = 3 biologic replicates: with three technical replicates each).

CYP3A4 = target: T2, CYP3A4 (Homo sapiens, UniProt P08684); test: CyP450 enzyme assay (P450-Glo); type: in vitro ADME; conditions: recombinant human CYP enzyme, 0.001–100 μmol/L
T2 construct: purchased Promega
T2 sequence (P08684 whole entry): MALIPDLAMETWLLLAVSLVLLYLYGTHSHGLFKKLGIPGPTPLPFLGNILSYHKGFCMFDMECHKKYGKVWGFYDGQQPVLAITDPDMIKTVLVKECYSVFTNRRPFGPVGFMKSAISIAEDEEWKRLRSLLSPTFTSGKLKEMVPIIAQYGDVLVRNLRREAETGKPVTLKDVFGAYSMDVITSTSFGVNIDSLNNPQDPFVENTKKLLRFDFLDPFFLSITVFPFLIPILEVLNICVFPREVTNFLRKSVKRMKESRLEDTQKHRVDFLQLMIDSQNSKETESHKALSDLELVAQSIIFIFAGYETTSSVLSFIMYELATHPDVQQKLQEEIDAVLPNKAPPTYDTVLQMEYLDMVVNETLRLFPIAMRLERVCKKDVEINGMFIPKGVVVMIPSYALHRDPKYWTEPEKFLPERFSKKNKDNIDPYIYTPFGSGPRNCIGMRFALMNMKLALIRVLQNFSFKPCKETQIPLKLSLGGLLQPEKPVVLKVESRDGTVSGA
Description: (§4) The assay was carried out using P450-Glo Screening System (Promega). The system contained recombinant human CYP enzyme and P450 reductase (and cytochrome b5 for CYP2C9, 2C19, and 3A4), luminogenic substrates appropriate for each CYP enzyme, a NADPH regeneration system (containing NADP+), and luciferin detection reagent. […] These compounds and organic solvents acetonitrile, and DMSO were purchased from Sigma-Aldrich.
(§5) First, 12.5 μL of the 4X stock solution of test compounds or positive controls (appropriate for each enzyme) were added to the “treated” wells. For the “untreated” (the values from these wells represent total CYP activity) and “minus-P450 control” wells (the values from these wells represent the CYP-independent background luminescence of the assay), 12.5 μL of vehicle was added. Then, 12.5 μL of the 4X control reaction mixture (containing membrane preparations devoid of CYP enzymes, the appropriate luminogenic substrate, and potassium phosphate buffer) were added to the minus-P450 control wells, and 12.5 μL of the 4X reaction mixture (containing human CYP membrane preparations, the appropriate luminogenic substrate, and potassium phosphate buffer) were added to all other wells. The plates were preincubated at room temperature for 10 minutes with the reaction mixture (membrane with enzyme, substrate, and 1 mol/L potassium phosphate buffer), and then 2X NADPH regeneration system was added to initiate the reaction. After incubation at room temperature for 30 minutes, 50 μL of the Luciferin Detection Reagent was added to stop the reaction and generate the luminescent signal. Before reading, the plate was incubated at room temperature for 20 minutes to stabilize the luminescent signal. The luminescence was measured using an Infinite F200 plate reader (Tecan). […] The percentage of CYP enzyme activity versus log concentration of test compounds were plotted to calculate the IC50 values.

CYP2C9 = target: T3, CYP2C9 (Homo sapiens, UniProt P11712); test: CyP450 enzyme assay (P450-Glo); type: in vitro ADME; conditions: recombinant human CYP enzyme, 0.001–100 μmol/L
T3 construct: purchased Promega
T3 sequence (P11712 whole entry): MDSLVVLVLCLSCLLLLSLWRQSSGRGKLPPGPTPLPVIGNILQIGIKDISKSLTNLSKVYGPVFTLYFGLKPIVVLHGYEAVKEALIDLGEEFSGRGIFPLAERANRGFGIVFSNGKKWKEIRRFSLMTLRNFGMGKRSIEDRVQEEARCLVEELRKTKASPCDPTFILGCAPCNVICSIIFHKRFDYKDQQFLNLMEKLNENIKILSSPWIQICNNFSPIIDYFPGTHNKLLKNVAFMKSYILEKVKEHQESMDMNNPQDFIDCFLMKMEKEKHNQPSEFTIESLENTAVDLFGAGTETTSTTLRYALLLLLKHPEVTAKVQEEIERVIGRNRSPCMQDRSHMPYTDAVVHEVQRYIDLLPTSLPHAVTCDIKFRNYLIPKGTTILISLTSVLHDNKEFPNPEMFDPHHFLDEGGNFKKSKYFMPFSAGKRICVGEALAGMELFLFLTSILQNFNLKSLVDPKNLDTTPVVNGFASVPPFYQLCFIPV
Description: as §4, §5

CYP2C19 = target: T4, CYP2C19 (Homo sapiens, UniProt P33261); test: CyP450 enzyme assay (P450-Glo); type: in vitro ADME
T4 construct: purchased Promega
T4 sequence (P33261 whole entry): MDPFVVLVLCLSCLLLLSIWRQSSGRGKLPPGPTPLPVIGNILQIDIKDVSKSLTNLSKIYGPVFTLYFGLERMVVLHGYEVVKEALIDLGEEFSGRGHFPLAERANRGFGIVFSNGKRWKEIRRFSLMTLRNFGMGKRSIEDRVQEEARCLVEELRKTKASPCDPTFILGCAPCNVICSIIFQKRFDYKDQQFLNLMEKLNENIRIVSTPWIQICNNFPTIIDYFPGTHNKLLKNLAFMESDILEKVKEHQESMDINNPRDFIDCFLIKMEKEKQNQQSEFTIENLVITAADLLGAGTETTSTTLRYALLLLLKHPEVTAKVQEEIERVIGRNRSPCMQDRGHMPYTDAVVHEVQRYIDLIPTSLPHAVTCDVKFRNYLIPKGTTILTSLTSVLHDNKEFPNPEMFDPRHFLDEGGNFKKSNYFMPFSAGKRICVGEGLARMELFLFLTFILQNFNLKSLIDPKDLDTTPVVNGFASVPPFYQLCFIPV
Description: as §4, §5

[12] = system: GFP-HER2-BM, MDA-MB-231, and MDA-MB-468 cancer cell lines; test: Cell viability (MTT) assay, three cancer cell lines together; type: cell-based, human
Description: as §1

Cdc42 = system: Cdc42; set-up: method as in PMID 23382385; conditions: read-out: IC50, Cdc42 selective inhibitor; cited from earlier work
Rac1 [13] = system: Rac1; set-up: method as in PMID 15128949; conditions: inhibits Rac1 binding and activation by the GEFs Trio and Tiam1; cited from earlier work

Compound: O=c1cc(CN2CCOCC2)occ1OCCCCCSc1ccnc2cc(C(F)(F)F)ccc12 [EHT1864]
- IC50 (Rac): > 10000 nM

Compound: CCn1c2ccccc2c2cc(Nc3ccnc(NCCCN4CCOCC4)n3)ccc21 [EHop-016]
- IC50 (Rac; blocking the interaction of Rac with the GEF Vav): 1100 nM

Compound: CCn1c2ccccc2c2cc(-n3nnc(C(O)c4cccnc4)c3-c3ccccc3)ccc21 (stereo not drawn) [EHop-040]
- inhibition of cell viability (GFP-HER2-BM cells [1]; 500 nmol/L, 72 hours): 80%
- Caspase-3/7 activity (MDA-MB-468 cells [2]): significantly increased Caspase-3/7 activity
- Caspase-3/7 activity (GFP-HER2-BM cells [3]): significantly increased Caspase-3/7 activity

Compound: CCn1c2ccccc2c2cc(-n3nnc(C(O)c4cccc(OC)c4)c3-c3ccccc3)ccc21 (stereo not drawn) [EHop-097]
- inhibition of cell viability (GFP-HER2-BM cells [1]; 250 nmol/L, 120 hr): approximately 60%
- inhibition of cell viability (GFP-HER2-BM cells [1]; 500 nmol/L, 72 hours): 80%
- GI50 (GFP-HER2-BM cells [1]; Homo sapiens, 120 hours, 0 to 1,000 nmol/L): 261 nM
- inhibition of cell viability (MDA-MB-231 cells [4]; 250 nmol/L, 120 hr): not effective
- inhibition of cell viability (MDA-MB-231 cells [4]; 500 nmol/L, 72 hours): 50%
- GI50 (MDA-MB-231 cells [4]; Homo sapiens, MDA-MB-231, 120 hours, 0 to 1,000 nmol/L): 327 nM
- inhibition of cell viability (MCF10A cells; 250 nmol/L, 120 hr): not effective
- GI50 (MCF10A cells; Homo sapiens, MCF-10A, 120 hours, 0 to 1,000 nmol/L): 335 nM
- Caspase-3/7 activity (GFP-HER2-BM cells [3]): significantly increased Caspase-3/7 activity
- Caspase-3/7 activity (MDA-MB-231 cells [5]): significantly increased Caspase-3/7 activity
- Rac1(G15A) interaction with Vav2 ([6]; 250 nmol/L, 1 hour preincubation, MDA-MB-231 cell lysates): blocked the interaction
- efficacy compared with EHop-016 at 8 μmol/L ([6]; EHop-097 at 250 nmol/L): 4 X
- potency relative to EHop-016 (parent compound) [6]: 10–30 ×
- potency relative to EHop-016 (parent compound) ([6]; listed as Ehop-097): 10 ×
- inhibition at 0.25 µM (Rac1 [7]): ~85%
- inhibition at 0.5 µM (Rac1B splice variant): ~60%
- loss in ruffles (A549 lung cancer cells; 500 nmol/L): 33%
- decrease in ruffles (A549 lung cancer cells; 1,000 nmol/L): 58%
- cell phenotype, actin cytoskeleton (MDA-MB-231 cells [8]): smaller and less spread but did not have the characteristic loss of polarity
- caspase-3/7 activity compared with the vehicle [9]: three to five times
- inhibition of cell viability (MCF7 breast cancer cells): not effective
- inhibition of cell viability (MDA-MB-468 cells [10]): nonstatistically significant trend
- effect on viability of HMECs (HMEC cells): did not affect the viability of HMECs
- wound closure (MDA-MB-231 cells [11]): wound area was maintained at 12 and 24 hours

Compound: CCn1c2ccccc2c2cc(-n3nnc(C(O)c4ccco4)c3-c3ccccc3)ccc21 (stereo not drawn) [EHop-098]
- inhibition of cell viability (GFP-HER2-BM cells [1]; 500 nmol/L, 72 hours): 80%

Compound: CCn1c2ccccc2c2cc(-n3nncc3-c3cccc(C)c3)ccc21 [MBQ-169]
- inhibition of cell viability (GFP-HER2-BM cells [1]; 500 nmol/L, 72 hours): approximately 75%
- Caspase-3/7 activity (GFP-HER2-BM cells [3]): significantly increased Caspase-3/7 activity
- IC50 (CYP3A4): 3310 nM
- IC50 (CYP2C9): 870 nM
- CYP2C19 IC50, fold lower than the IC50 for the positive control (CYP2C19): approximately 6 fold
- IC50 at 30 min (CYP2C19; human, recombinant human CYP enzyme, 0.001–100 μmol/L): 580 nM

Compound: CCn1c2ccccc2c2cc(-n3nncc3-c3ccccn3)ccc21 [MBQ-170]
- effect on viability of cancer cells [12]: did not affect the viability of cancer cells
- wound closure (MDA-MB-231 cells [11]): wound was closed in 24 hours

Compound: CCn1c2ccccc2c2cc(-n3nncc3-c3cccnc3)ccc21 [MBQ-171]
- inhibition of cell viability (GFP-HER2-BM cells [1]; 500 nmol/L, 72 hours): approximately 75%
- IC50 (CYP3A4): 8040 nM
- IC50 (CYP2C9): 1550 nM
- IC50 (CYP2C19; recombinant human CYP enzyme, 0.001–100 μmol/L): 12400 nM

Compound: COc1ccc(C2=NN(c3ccc(S(N)(=O)=O)cc3)C(c3ccccc3)C2)cc1 (stereo not drawn) [ML141]
- IC50 (Cdc42): 3000 to 5000 nM

Compound: O=C(C#Cc1ccccc1)c1cccc([N+](=O)[O-])c1 [MLS000532223]
- IC50 (Rac): > 10000 nM
